Measurements published in patent US8940350B2, “Cereal compositions comprising high-potency sweeteners” (The Coca-Cola Company, priority 2005, dated 2015).

Assay: Rate of dissolution in H2O at 25° C. of rebaudioside A polymorph and amorphous forms
Assay type: physicochemical
Details: grade in words

| Rate of dissolution in H2O at 25° C. | Substance |
| --- | --- |
| Intermediate | rebaudioside A [Form 2] |
| Very low | rebaudioside A [Form 1] |
| High | rebaudioside A [Form 3] |
| High | rebaudioside A [Form 4] |
